Target: T1, CDK4/Cyclin D1 (Homo sapiens, UniProt P11802)
T1 construct: made in house; host or cells: SF21 insect cells (Spodoptera frugiperda), baculovirus co-infection, vector pVL1393
Experiment: CDK Inhibition Assay (Scintillation Proximity Assay, GST-Retinoblastoma substrate)
Type: biochemical
Conditions: in-vitro kinase assay, incorporation of [γ-33-P]-ATP into GST-Rb, 60 minutes at room temperature; read-out: CDK4 inhibitory activity IC50
Protocol: The compounds were tested in an in vitro kinase assay in 96 well format using Scintillation Proximity Assay (SPA—obtained from Amersham) for measuring incorporation of [γ-33-P]-Adenosine Triphosphate into a test substrate (GST-Retinoblastoma). In each well was placed the compound to be tested (diluted in DMSO and water to correct, concentrations) and in control wells either p 16 as an inhibitor control or DMSO as a positive control. Approximately 0.5 μl of CDK4/Cyclin D1 partially-purified enzyme (amount dependent on enzyme activity) diluted in 25 μl incubation buffer was added to each well then 20 μl of GST-Rb/ATP/ATP33 mixture (containing 0.54 μg GST-Rb and 0.2 μM ATP and 0.14 μCi [γ-33-P]-Adenosine Triphosphate), and the resulting mixture shaken gently, then incubated at room temperature for 60 minutes. To each well was then added 150 μL stop solution containing (0.8 mg/well of Protein A-PVT SPA bead (Amersham)), 20 pM/well of Anti-Glutathione Transferase, Rabbit IgG (obtained from Molecular Probes), 61 mM EDTA and 50 mM HEPES pH 7.5 containing 0.05% sodium azide. The plates were sealed with Topseal-S plate sealers, left for two hours then spun at 2500 rpm, 1124×g., for 5 minutes. The plates were read on a Topcount for 30 seconds per well. […]

T1 sequence (P11802 whole entry): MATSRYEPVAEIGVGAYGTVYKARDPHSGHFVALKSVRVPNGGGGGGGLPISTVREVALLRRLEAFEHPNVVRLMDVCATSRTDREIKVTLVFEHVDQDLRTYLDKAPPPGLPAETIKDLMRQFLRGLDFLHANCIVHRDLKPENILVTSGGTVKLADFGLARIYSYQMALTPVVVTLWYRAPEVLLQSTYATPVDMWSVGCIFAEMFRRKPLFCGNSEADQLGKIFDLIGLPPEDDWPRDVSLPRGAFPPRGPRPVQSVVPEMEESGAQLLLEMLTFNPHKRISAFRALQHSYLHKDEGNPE
T1 sequence (P24385 whole entry partner): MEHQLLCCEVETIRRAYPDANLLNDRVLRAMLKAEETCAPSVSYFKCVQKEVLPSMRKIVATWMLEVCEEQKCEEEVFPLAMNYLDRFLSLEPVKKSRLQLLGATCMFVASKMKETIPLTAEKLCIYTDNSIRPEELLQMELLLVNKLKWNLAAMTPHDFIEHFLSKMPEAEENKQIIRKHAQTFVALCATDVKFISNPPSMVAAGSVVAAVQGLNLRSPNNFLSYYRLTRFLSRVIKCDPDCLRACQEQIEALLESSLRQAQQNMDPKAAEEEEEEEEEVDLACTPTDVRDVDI

Row | SMILES | IC50 [nM]
1 | Cc1ccc(N(CC#N)c2cc(Nc3ccc(OCC(O)CN(C)C)cc3)ncn2)c(Br)c1 (centres unmarked) [Example 1, 4-{4-[3-(N,N-Dimethyl)amino-2-hydroxyproroxy]anilino}-6-(N-cyanomethyl-2-bromo-4-methylanilino)pyrimidine] | 110
2 | Cc1ccc(Cl)c(N(CC#N)c2cc(Nc3ccc(OCC(O)CN(C)C)cc3)ncn2)c1 (centres unmarked) [Example 2, 4-{4-[3-(N,N-Dimethyl)amino-2-hydroxylropoxy]anilino}-6-(N-cyanomethyl-2-chloro-5-methylanilino)pyrimidine] | 70

From patent publication US6632820B1, “Pyrimidine compounds” (AstraZeneca AB, priority 1998, dated 2003)
